Measured values: patent US11433090B2, “mTOR-inhibitor-containing medicine for treating or preventing ophthalmic symptoms, disorders, or diseases, and application thereof” (The Doshisha, priority 2017, dated 2022)

Key:
Type in all cases: cell-based, human
[1] = system: cleaved caspase 3; test: Western blot of cleaved caspase 3 after TGF-β2 stimulation in iFECD; conditions: 3 pmol mTOR siRNA, then TGF-β2 10 ng/ml 24 h, FIG. 8
Experimental: (§1) The medium was removed from a culture dish in which iFECDs were being cultured, and the cells were supplemented with 1×PBS (−) that was preheated to 37° C., and were washed. This was repeated twice. The cells were supplemented again with 1×PBS (−) and incubated for 3 minutes at 37° C. (5% CO2). After removing the PBS (−), the cells were supplemented with 0.05% Trypsin-EDTA (Nacalai Tesque, 32778-34) and incubated for 5 minutes at 37° C. (5% CO2). The cells were then suspended in a medium, and collected by centrifugation at 1500 rpm for 3 minutes. DMEM (Nacalai Tesque, 08456-36)+10% FBS (Biowest, S1820-500)+1% P/S (Nacalai Tesque, 26252-94) was used as the medium.
iFECDs were seeded on a 12-well plate at a ratio of 1×10^5 cells per well and cultured for 24 hours at 37° C. (5% CO2) (DMEM+10% FBS+1% P/S was used as the medium). After 24 hours, the medium was removed. Rapamycin was added to culture the cells for 24 hours. (DMEM+2% FBS+1% P/S was used as the medium). After 24 hours, the medium was removed. A medium containing 10 ng/ml of Recombinant Human TGF-β2 (Wako, 200-19911) and rapamycin was added to culture the cells for 24 hours. […]
8 μg of the extracted protein was separated by SDS-PAGE and transferred onto a nitrocellulose membrane. […] The detected band strength was analyzed with a lumino image analyzer LAS-4000 mini (Fuji Film) and ImageQuant™ software (GE Healthcare). […]

[2] = system: mTOR; test: mTOR expression at RNA level in iFECD (PCR, agarose gel electrophoresis); conditions: 3 pmol mTOR siRNA, FIG. 6
Experimental: as §1
iFECDs were seeded on a 12-well plate at a ratio of 3×10^4 cells per well and cultured for 24 hours at 37° C. (5% CO2) (medium: DMEM+10% FBS+1% P/S). After 24 hours, the medium was removed. Lipofectamine (invitrogen, 92008) and 3 pmol of mTOR siRNA (Ambion, AS026M0L) were added to culture the cells for 24 hours (medium: OptiMEM-I (invitrogen, 31985-088)). The mTOR siRNA that was used has a sense strand set forth in SEQ ID NO: 1 and an antisense strand set forth in SEQ ID NO: 2. After 24 hours, the medium was removed to culture the cells for 72 hours at 37° C. (5% CO2) (medium: DMEM+10% FBS+1% P/S). After 72 hours, the medium was removed. […]

[3] = system: iFECD; test: Cell damage induced by TGF-β2 in iFECD, phase contrast microscopy; conditions: 3 pmol mTOR siRNA with Lipofectamine, then TGF-β2 10 ng/ml 24 h, FIG. 7
Experimental: as §1
iFECDs were seeded on a 12-well plate at a ratio of 1×10^5 cells per well and cultured for 24 hours at 37° C. (5% CO2) (DMEM+10% FBS+1% P/S was used as the medium). After 24 hours, the medium was removed. Rapamycin was added to culture the cells for 24 hours. (DMEM+2% FBS+1% P/S was used as the medium). After 24 hours, the medium was removed. A medium containing 10 ng/ml of Recombinant Human TGF-β2 (Wako, 200-19911) and rapamycin was added to culture the cells for 24 hours. (DMEM+2% FBS+1% P/S was used as the medium). After 24 hours, the cell morphology and apoptosis were observed under a phase contrast microscope.
iFECDs were seeded on a 12-well plate at a ratio of 3×10^4 cells per well and cultured for 24 hours at 37° C. […]

Substance: mTOR siRNA: siRNA against mTOR gene (Ambion, AS026M0L); sense strand SEQ ID NO: 1, antisense strand SEQ ID NO: 2 (sense CAUUCGCAUUCAGUCCAUATT; antisense UAUGGACUGAAUGCGAAUGAT; chemistry not given here)
- activated form of cleaved caspase-3 (about 17 kDa), western blot [1]: hardly observed
- mTOR expression, RNA level (PCR) [2]: suppression was found
- damage to corneal endothelial cells induced by Recombinant Human TGF-β2 [3]: suppressed
